From PubChem BioAssay AID1918998 (Molecular Pharmacology Branch, DTP, NCI, 2023)
Several values for one entry are separate records, joined by “and”; a condition that tells them apart may be missing. Equal values may be shown once.

Test system: 521955-158-R2-J5-PDC complex spheroid growth
Assay: Anticancer human tumor 521955-158-R2-J5-PDC patient-derived pancreatic carcinoma cell line growth inhibition [AhR]
Conditions: for viability, T/C: stronger effect = lower value; active = viability on the fitted dose curve at most 10% of control; inactive = the rest
Procedure, shortened: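 Spheroids combined tumor cells with HUVEC endothelial cells and human MSCs as stroma. AhR antagonists were paired with standard or investigational drugs, each dosed in half-log steps down from near clinical Cmax, or from 10 microM where Cmax was unknown.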

[1] = curve of first compound, second compound 0.1 µM
[2] = curve of first compound, second compound 0.316 µM
[3] = curve of first compound, second compound 1 µM
[4] = curve of first compound, second compound 3.16 µM
[5] = curve of first compound, second compound 10 µM
[6] = second compound 0.1 µM, first compound 0.0316 µM
[7] = second compound 0.1 µM, first compound 0.1 µM
[8] = second compound 0.1 µM, first compound 0.316 µM
[9] = second compound 0.1 µM, first compound 1 µM
[10] = second compound 0.1 µM, first compound 3.16 µM
[11] = second compound 0.1 µM, first compound 10 µM
[12] = second compound 0.316 µM, first compound 0.0316 µM
[13] = second compound 0.316 µM, first compound 0.1 µM
[14] = second compound 0.316 µM, first compound 0.316 µM
[15] = second compound 0.316 µM, first compound 1 µM
[16] = second compound 0.316 µM, first compound 3.16 µM
[17] = second compound 0.316 µM, first compound 10 µM
[18] = second compound 1 µM, first compound 0.0316 µM
[19] = second compound 1 µM, first compound 0.1 µM
[20] = second compound 1 µM, first compound 0.316 µM
[21] = second compound 1 µM, first compound 1 µM
[22] = second compound 1 µM, first compound 3.16 µM
[23] = second compound 1 µM, first compound 10 µM
[24] = second compound 3.16 µM, first compound 0.0316 µM
[25] = second compound 3.16 µM, first compound 0.1 µM
[26] = second compound 3.16 µM, first compound 0.316 µM
[27] = second compound 3.16 µM, first compound 1 µM
[28] = second compound 3.16 µM, first compound 3.16 µM
[29] = second compound 3.16 µM, first compound 10 µM
[30] = second compound 10 µM, first compound 0.0316 µM
[31] = second compound 10 µM, first compound 0.1 µM
[32] = second compound 10 µM, first compound 0.316 µM
[33] = second compound 10 µM, first compound 1 µM
[34] = second compound 10 µM, first compound 3.16 µM
[35] = second compound 10 µM, first compound 10 µM
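Throughout, for viability, T/C: spheroids mix tumor cells with HUVEC endothelium and human MSC stroma; luminescence taken as viability surrogate after a week of drug exposure.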

CC1COCCN1c1cc(C2(S(C)(=N)=O)CC2)nc(-c2ccnc3[nH]ccc23)n1 (stereo not drawn) + Cc1ccccc1N=Nc1ccc(NC(=O)c2ccnn2C)c(C)c1
2540 nM: IC50 [3]
2360 nM: IC50 [2]
2520 nM: IC50 [4]
inactive: viability, T/C [6] 93.3% | viability, T/C [7] 84.7% | viability, T/C [8] 86.6% | viability, T/C [9] 86.2% | viability, T/C [10] 28.1% | viability, T/C [11] 15.9% | viability, T/C [12] 104% | viability, T/C [13] 112% | viability, T/C [14] 100% | viability, T/C [15] 101% | viability, T/C [16] 32.8% | viability, T/C [17] 14% | viability, T/C [18] 117% | viability, T/C [19] 110% | viability, T/C [20] 136% | viability, T/C [21] 109% | viability, T/C [22] 36.2% | viability, T/C [23] 14.8% | viability, T/C [24] 123% | viability, T/C [25] 135% | viability, T/C [26] 131% | viability, T/C [27] 120% | viability, T/C [28] 32.8% | viability, T/C [29] 15.5% | viability, T/C [30] 130% | viability, T/C [31] 149% | viability, T/C [32] 139% | viability, T/C [33] 124% | viability, T/C [34] 32.9% | viability, T/C [35] 16.1%
2550 nM: IC50 [5]
2050 nM: IC50 [1]

CC(C)c1c(-c2ccccc2)nc2c(C#N)c[nH]n2c1=O + Cc1ccccc1N=Nc1ccc(NC(=O)c2ccnn2C)c(C)c1
> 10000 nM: IC50 [1] | IC50 [2] | IC50 [3] | IC50 [4] | IC50 [5]
inactive: viability, T/C [6] 98.1% | viability, T/C [7] 125% | viability, T/C [8] 80.3% | viability, T/C [9] 94.7% | viability, T/C [10] 81.2% | viability, T/C [11] 97.8% | viability, T/C [12] 115% | viability, T/C [13] 95.1% | viability, T/C [14] 110% | viability, T/C [15] 81.5% | viability, T/C [16] 82% | viability, T/C [17] 81.6% | viability, T/C [18] 88.7% | viability, T/C [19] 101% | viability, T/C [20] 102% | viability, T/C [21] 87.8% | viability, T/C [22] 92.6% | viability, T/C [23] 97.8% | viability, T/C [24] 128% | viability, T/C [25] 125% | viability, T/C [26] 127% | viability, T/C [27] 114% | viability, T/C [28] 114% | viability, T/C [29] 114% | viability, T/C [30] 141% | viability, T/C [31] 130% | viability, T/C [32] 132% | viability, T/C [33] 123% | viability, T/C [34] 114% | viability, T/C [35] 103%

Nc1ncn(C2CC(O)C(CO)S2)c(=O)n1 (stereo not drawn) + Cc1ccccc1N=Nc1ccc(NC(=O)c2ccnn2C)c(C)c1
inactive: viability, T/C (second compound 0.1 µM, first compound 0.000949 µM) 125% | viability, T/C (second compound 0.1 µM, first compound 0.003 µM) 103% | viability, T/C (second compound 0.1 µM, first compound 0.00949 µM) 104% | viability, T/C (second compound 0.1 µM, first compound 0.03 µM) 104% | viability, T/C (second compound 0.1 µM, first compound 0.0949 µM) 98% | viability, T/C (second compound 0.1 µM, first compound 0.3 µM) 73% | viability, T/C (second compound 0.316 µM, first compound 0.000949 µM) 92.9% | viability, T/C (second compound 0.316 µM, first compound 0.003 µM) 132% | viability, T/C (second compound 0.316 µM, first compound 0.00949 µM) 107% | viability, T/C (second compound 0.316 µM, first compound 0.03 µM) 100% | viability, T/C (second compound 0.316 µM, first compound 0.0949 µM) 80.5% | viability, T/C (second compound 0.316 µM, first compound 0.3 µM) 78.2% | viability, T/C (second compound 1 µM, first compound 0.000949 µM) 100% | viability, T/C (second compound 1 µM, first compound 0.003 µM) 146% | viability, T/C (second compound 1 µM, first compound 0.00949 µM) 108% | viability, T/C (second compound 1 µM, first compound 0.03 µM) 91% | viability, T/C (second compound 1 µM, first compound 0.0949 µM) 99.9% | viability, T/C (second compound 1 µM, first compound 0.3 µM) 102% | viability, T/C (second compound 3.16 µM, first compound 0.000949 µM) 135% | viability, T/C (second compound 3.16 µM, first compound 0.003 µM) 145% | viability, T/C (second compound 3.16 µM, first compound 0.00949 µM) 125% | viability, T/C (second compound 3.16 µM, first compound 0.03 µM) 130% | viability, T/C (second compound 3.16 µM, first compound 0.0949 µM) 105% | viability, T/C (second compound 3.16 µM, first compound 0.3 µM) 109% | viability, T/C (second compound 10 µM, first compound 0.000949 µM) 176% | viability, T/C (second compound 10 µM, first compound 0.003 µM) 170% | viability, T/C (second compound 10 µM, first compound 0.00949 µM) 157% | viability, T/C (second compound 10 µM, first compound 0.03 µM) 139% | viability, T/C (second compound 10 µM, first compound 0.0949 µM) 125% | viability, T/C (second compound 10 µM, first compound 0.3 µM) 127%
> 300 nM: IC50 [1] | IC50 [2] | IC50 [3] | IC50 [4] | IC50 [5]

Nc1ccccc1NC(=O)c1ccc(CNC(=O)OCc2cccnc2)cc1
5150 nM and 5470 nM and 3260 nM: IC50 (curve of compound)
inactive: viability, T/C (compound 0.0316 µM) 97.7% and 110% and 106% | viability, T/C (compound 0.1 µM) 123% and 118% and 108% | viability, T/C (compound 0.316 µM) 106% and 127% and 115% | viability, T/C (compound 1 µM) 98.9% and 105% and 80% | viability, T/C (compound 3.16 µM) 63.6% and 66.5% and 53.9% | viability, T/C (compound 10 µM) 31.6% and 32.4% and 21.6%

CC1(C)CCC(CN2CCN(c3ccc(C(=O)NS(=O)(=O)c4ccc(NCC5CCOCC5)c([N+](=O)[O-])c4)c(Oc4cnc5[nH]ccc5c4)c3)CC2)=C(c2ccc(Cl)cc2)C1
inactive: viability, T/C (compound 0.0316 µM) 96.5% and 101% and 99% | viability, T/C (compound 0.1 µM) 71.9% and 97.7% and 79.6% | viability, T/C (compound 0.316 µM) 105% and 111% and 106% | viability, T/C (compound 1 µM) 90.7% and 91% and 77.8% | viability, T/C (compound 3.16 µM) 96% and 87.3% and 90.5% | viability, T/C (compound 10 µM) 73.7% and 91.8% and 83.6%
> 10000 nM: IC50 (curve of compound)

COc1cc(C2c3cc4c(cc3C(OC3OC5COC(C)OC5C(O)C3O)C3COC(=O)C23)OCO4)cc(OC)c1O (stereo not drawn)
inactive: viability, T/C (compound 0.0316 µM) 92.5% and 85.2% and 81.7% | viability, T/C (compound 0.1 µM) 98.5% and 79.4% and 77% | viability, T/C (compound 0.316 µM) 76.4% and 80.6% and 66.2% | viability, T/C (compound 1 µM) 56.4% and 36.8% and 39.9% | viability, T/C (compound 3.16 µM) 36.9% and 23.6% and 22.1% | viability, T/C (compound 10 µM) 31% and 20.7% and 19.1%
1380 nM and 706 nM and 636 nM: IC50 (curve of compound)

CC(CO)NC(=O)c1cc(-c2ccc(Cl)cc2)nn(-c2cnn(C)c2)c1=O (stereo not drawn)
inactive: viability, T/C (compound 10 µM) 87.4% [middle of 19 runs]
> 10000 nM: IC50 (compound alone, run of 05/31/2022)

COc1cc(C2c3cc4c(cc3C(OC3OC5COC(C)OC5C(O)C3O)C3COC(=O)C23)OCO4)cc(OC)c1O (stereo not drawn) + Cc1cncc(-c2nc(NCCc3c[nH]c4ccccc34)c3ncn(C(C)C)c3n2)c1
1050 nM: IC50 [4]
1810 nM: IC50 [5]
1080 nM: IC50 [1]
980 nM: IC50 [3]
1010 nM: IC50 [2]
inactive: viability, T/C [6] 102% | viability, T/C [7] 107% | viability, T/C [8] 85% | viability, T/C [9] 52.6% | viability, T/C [10] 29% | viability, T/C [11] 25.8% | viability, T/C [12] 107% | viability, T/C [13] 101% | viability, T/C [14] 93.2% | viability, T/C [15] 49.1% | viability, T/C [16] 27.4% | viability, T/C [17] 19.2% | viability, T/C [18] 106% | viability, T/C [19] 111% | viability, T/C [20] 86.5% | viability, T/C [21] 50.2% | viability, T/C [22] 27.9% | viability, T/C [23] 23.6% | viability, T/C [24] 112% | viability, T/C [25] 126% | viability, T/C [26] 118% | viability, T/C [27] 50.9% | viability, T/C [28] 34.4% | viability, T/C [29] 26.2% | viability, T/C [30] 179% | viability, T/C [31] 126% | viability, T/C [32] 118% | viability, T/C [33] 56.9% | viability, T/C [34] 31.6% | viability, T/C [35] 25.1%

CC1(C)CCC(CN2CCN(c3ccc(C(=O)NS(=O)(=O)c4ccc(NCC5CCOCC5)c([N+](=O)[O-])c4)c(Oc4cnc5[nH]ccc5c4)c3)CC2)=C(c2ccc(Cl)cc2)C1 + Cc1ccccc1N=Nc1ccc(NC(=O)c2ccnn2C)c(C)c1
inactive: viability, T/C [6] 114% | viability, T/C [7] 140% | viability, T/C [8] 96.5% | viability, T/C [9] 102% | viability, T/C [10] 104% | viability, T/C [11] 103% | viability, T/C [12] 110% | viability, T/C [13] 99.9% | viability, T/C [14] 116% | viability, T/C [15] 108% | viability, T/C [16] 107% | viability, T/C [17] 96% | viability, T/C [18] 120% | viability, T/C [19] 144% | viability, T/C [20] 133% | viability, T/C [21] 116% | viability, T/C [22] 98.8% | viability, T/C [23] 94.5% | viability, T/C [24] 135% | viability, T/C [25] 155% | viability, T/C [26] 165% | viability, T/C [27] 119% | viability, T/C [28] 130% | viability, T/C [29] 84.6% | viability, T/C [30] 166% | viability, T/C [31] 162% | viability, T/C [32] 158% | viability, T/C [33] 151% | viability, T/C [34] 108% | viability, T/C [35] 72.6%
> 10000 nM: IC50 [1] | IC50 [2] | IC50 [3] | IC50 [4] | IC50 [5]
